Measurements taken from US11033545B2, “Negative allosteric modulators of MGLUR5 for use in the treatment of mature brain damages” (Sinntaxis AB, priority 2016, dated 2021).

Test system: male C57/BL6 mice
Experiment: Paw placement test after photothrombotic stroke in the mouse
Type: in vivo
Conditions: mouse; five days treatment initiated 10 days after stroke; FIG. 2C
Procedure: Animals. All experiments were carried out with the approval of the Malmo-Lund animal review board and according to the ARRIVE guidelines. The experiments were carried out on male C57/BL6 mice (8 weeks of age, Charles River Scanbur A/S Karlslunde, Denmark). Studies were subjected to randomization and carried out in a blinded fashion to the investigators who performed the surgeries and behavioral assessment.
Materials were as in Example 1 and the administration of the drug was made as in Example 1. Also the positive allosteric modulator (PAM) for the mGlur5 receptor was SIN006 (N-Cyclobutyl-6-[2-(3-fluorophenyl)ethynyl]-3-pyridinecarboxamide hydrochloride; VU0360172).
Induction of stroke in the mouse. Mice were subjected to unilateral photothrombotic (PT) cortical infarct in the left sensori-motor cortex. During surgery, the body temperature of the animals was kept at 37° C. using a self-regulating heating pad. Animals were anesthetized using 1.5-2.5% isoflurane (Sigma) in 100% 02. The skin above the skull was incised; a fiber optic bundle with a 2.5 mm aperture diameter was connected to a cold light source (CL 1500 ECO, Zeiss, Germany) and adjusted to the stereotaxic coordinates of the sensori-motor cortex, 0.5 mm anterior to bregma and 1.5 mm lateral to midline. One intraperitoneal (i.p.) injection of 0.25 ml Rose Bengal (10 mg/ml in 0.9% saline; Sigma-Aldrich, Germany) was given 5 min before the light was turned on for 20 minutes. Care was taken not to exceed 38° C. at the skull surface, underneath the fiber optic bundle. Post surgery, animals were allowed to awake from anesthesia while on a heating pad and returned to the cages with free access to food pellets and water.
Enriched housing. It is well known that housing of rodents in an enriched environment stimulates the various sensori-motor systems of the brain enhancing recovery after experimental stroke. Enriched housing was accomplished by the following procedure. After selective sorting at day 2 after stroke, mice were randomly distributed into standard (STD, 17 cm×16 cm×34.5 cm) or enriched cages (EE, 30 cm×27 cm×43 cm). Multilevel-enriched cages were equipped with various colored objects such as plastic tunnels, small houses, slides and rodent running wheels; the disposition of the objects was changed every second day. Mice were housed in either standard (2 animals/cage) or enriched cages (6-8 animals/cage) for 12 days. Animals in standard cages were handled similarly except for the housing condition.
Paw placement test. The mouse was held along its rostro-caudal extension on the edge of a bench and both the unilateral front and hind paws were gently pushed along it. The placement of each paw was recorded when the mouse was moved towards the edge. Sensori-motor dysfunction was assessed by using a score of 1, 0.5, and 0: (1)—the paw is immediately placed on the table surface; (0.5)—the limb is extended, but with some movements and attempts to place the paw on the surface of the table; (0)—the paw is totally immobilized, hanging down, with no movement. In order to obtain groups with a similar functional deficit prior to treatment of the animals with drugs or vehicle, selective sorting was performed on day 2 after experimental stroke, a time point of recovery when the infarct development had subsided.
Administration of the compounds. The compounds were administrated orally (p.o.) by catheters placed in the stomach. The amount of solutions were 0.2 ml/rat and 0.1 ml/mice.
Induction of stroke was as made as in Example 1 for rats and as in Example 2 in mice. Assessment of neurological function was performed as in Example 1 for rats and as in Example 2 for mice. The animals were perfused and immunostained as in Example 1, and the infarct size was assessed as in Example 1.

## Cc1nc(C#Cc2cccnc2)cs1 [SIN007, 3-[(2methyl-1,3-thiazol-4-yl)ethynyl]pyridine]
  recovery of function, delayed treatment: the recovery of function is the same as when treatment is initiated at 2 days after stroke
